Patent US20260028336A1 (Arcus Biosciences, Inc., priority 2022, published 2026)

Legend:
Cbl-b = target: T1, Cbl-b (Homo sapiens, UniProt Q13191); assay: Cbl-b probe displacement HTRF binding assay; conditions: 0.4 nM biotinylated Cbl-b, 150 nM BODIPY probe
T1 construct: biotin (biotinylated)
Procedure, shortened: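 Biotinylated Cbl-b was preincubated with compound for 60 min at room temperature in HEPES/NaCl/Triton/TCEP/BSA buffer. BODIPY probe was added for 15 min, followed by streptavidin-terbium, and the HTRF signal was read. Displacement was normalised to DMSO and no-protein controls, and affinity was obtained from a four-parameter dose-response fit.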

Jurkat cells = assay: IL-2 secretion assay in CD3/CD28-activated Jurkat cells (AlphaLISA); type: cell-based; conditions: Homo sapiens, CD3/CD28 T Cell Activator, 24 h, IL-2 AlphaLISA
Procedure, shortened: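 Jurkat cells (50,000/well) were preincubated 1 h at 37° C with compound in a 16-point 1:2 series spanning 10 μM to 300 pM final. Cells were then activated with CD3/CD28 T cell activator, and secreted IL-2 was read by AlphaLISA. EC50 came from 4-parameter logistic fits.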

T1 sequence (Q13191 whole entry, species assumed): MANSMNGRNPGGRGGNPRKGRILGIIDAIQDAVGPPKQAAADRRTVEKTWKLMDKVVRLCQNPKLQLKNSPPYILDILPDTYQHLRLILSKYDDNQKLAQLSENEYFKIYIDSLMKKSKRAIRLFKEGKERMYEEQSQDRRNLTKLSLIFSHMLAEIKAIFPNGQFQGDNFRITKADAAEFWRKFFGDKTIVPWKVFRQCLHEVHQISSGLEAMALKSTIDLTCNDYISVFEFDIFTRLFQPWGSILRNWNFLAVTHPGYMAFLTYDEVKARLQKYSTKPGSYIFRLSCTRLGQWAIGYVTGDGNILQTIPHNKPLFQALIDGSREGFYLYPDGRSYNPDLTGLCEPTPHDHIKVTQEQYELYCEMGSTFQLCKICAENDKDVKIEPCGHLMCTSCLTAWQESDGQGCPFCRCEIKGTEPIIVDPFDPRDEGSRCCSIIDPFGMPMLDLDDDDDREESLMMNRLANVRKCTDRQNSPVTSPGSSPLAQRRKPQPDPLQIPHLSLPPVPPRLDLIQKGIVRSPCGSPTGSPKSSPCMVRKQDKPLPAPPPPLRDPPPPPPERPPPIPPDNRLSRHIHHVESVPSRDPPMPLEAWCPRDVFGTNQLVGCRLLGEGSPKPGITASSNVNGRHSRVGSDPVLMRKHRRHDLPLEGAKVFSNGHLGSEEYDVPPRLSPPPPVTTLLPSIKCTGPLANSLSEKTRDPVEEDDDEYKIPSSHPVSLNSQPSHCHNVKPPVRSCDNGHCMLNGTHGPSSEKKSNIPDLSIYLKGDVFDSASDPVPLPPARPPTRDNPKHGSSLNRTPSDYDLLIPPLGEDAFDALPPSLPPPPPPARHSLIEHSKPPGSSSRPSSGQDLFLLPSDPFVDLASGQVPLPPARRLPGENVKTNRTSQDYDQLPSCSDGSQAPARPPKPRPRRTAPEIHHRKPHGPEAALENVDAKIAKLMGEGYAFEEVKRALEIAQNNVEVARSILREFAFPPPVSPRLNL

Row | SMILES | IC50 (Cbl-b) | EC50 (Jurkat cells)
1 | COC(C)(c1cccc(-n2cc(C3CC3)c3cc(CN4CCC[C@H](C)C4)[nH]c3c2=O)c1)c1nncn1C (stereo partly drawn) [Example 159, 4-cyclopropyl-6-[3-[1-methoxy-1-(4-methyl-1,2,4-triazol-3-yl)ethyl]phenyl]-2-[[(3S)-3-methylpiperidin-1-yl]methyl]-1H-pyrrolo[2,3-c]pyridin-7-one] | 0.1 to 1 µM | 0.1 to 1 µM
2 | Cn1cnnc1C1(c2cccc(-n3cc(C4CC4)c4cc(CN5CCC(F)(F)C5)[nH]c4c3=O)c2)CC(F)(F)C1 [Example 79, 4-cyclopropyl-6-{3-[3,3-difluoro-1-(4-methyl-4H-1,2,4-triazol-3-yl)cyclobutyl]phenyl}-2-[(3,3-difluoropyrrolidin-1-yl)methyl]-1H,6H,7H-pyrrolo[2,3-c]pyridin-7-one] | 0.1 to 1 µM | 0.1 to 1 µM
3 | C[C@@H]1CN(Cc2nc3c(C(F)(F)F)cn(-c4cccc(C5(c6nncn6C)CC(F)(F)C5)c4)c(=O)c3[nH]2)CCO1 [Example 114, 5-[3-[3,3-difluoro-1-(4-methyl-1,2,4-triazol-3-yl)cyclobutyl]phenyl]-2-[[(2R)-2-methylmorpholin-4-yl]methyl]-7-(trifluoromethyl)-3H-imidazo[4,5-c]pyridin-4-one] | 0.1 to 1 µM | > 5 µM
4 | C[C@H]1CCCN(Cc2cc3c(C4CC4)cn(-c4cc(C(C)(C)c5nncn5C)ccn4)c(=O)c3[nH]2)C1 [Example 160, 2—{[(S)-3-methyl-1-piperidyl]methyl}-4-cyclopropyl-6-{4-[1-methyl-1-(4-methyl-4H-1,2,4-triazol-3-yl)ethyl]-2-pyridyl}-1,6-dihydro-1,6-diaza-7-indenone] | 0.1 to 1 µM | 0.1 to 1 µM
5 | CC1CC(c2cccc(-n3cc(C4CC4)c4cc(CN5C[C@@H]6C[C@H]5CN6)[nH]c4c3=O)c2)(c2nncn2C)C1 (stereo partly drawn) [Example 59, 4-cyclopropyl-2-{[(1S,4S)-2,5-diazabicyclo[2.2.1]heptan-2-yl]methyl}-6-{3-[3-methyl-1-(4-methyl-4H-1,2,4-triazol-3-yl)cyclobutyl]phenyl}-1H,6H,7H-pyrrolo[2,3-c]pyridin-7-one] | < 0.1 µM | > 5 µM
6 | CC1CC(c2cccc(-n3cc(C4CC4)c4cc(CN[C@H]5CCOC5)[nH]c4c3=O)c2)(c2nncn2C)C1 (stereo partly drawn) [Example 56, 4-cyclopropyl-2-({[(3S)-oxolan-3-yl]amino}methyl)-6-{3-[(1r,3s)-3-methyl-1-(4-methyl-4H-1,2,4-triazol-3-yl)cyclobutyl]phenyl}-1H,6H,7H-pyrrolo[2,3-c]pyridin-7-one] | < 0.1 µM | 0.1 to 1 µM
7 | Cc1nnc(C2(c3cccc(-n4cc(C5CC5)c5cc(CN6CCC[C@H](C)C6)[nH]c5c4=O)c3)CC(F)(F)C2)n1C [Example 125, 4-cyclopropyl-6-[3-[1-(4,5-dimethyl-1,2,4-triazol-3-yl)-3,3-difluorocyclobutyl]phenyl]-2-[[(3S)-3-methylpiperidin-1-yl]methyl]-1H-pyrrolo[2,3-c]pyridin-7-one] | 1 to 5 µM | 1 to 5 µM
8 | CC1CC(c2cccc(-n3cc(C4CC4)c4cc(CN5CCCC(F)(F)C5)[nH]c4c3=O)c2)(c2nncn2C)C1 (centres unmarked) [Example 66, 4-cyclopropyl-2-[(3,3-difluoropiperidin-1-yl)methyl]-6-{3-[(1r)-3-methyl-1-(4-methyl-4H-1,2,4-triazol-3-yl)cyclobutyl]phenyl}-1H,6H,7H-pyrrolo[2,3-c]pyridin-7-one] | 0.1 to 1 µM | 1 to 5 µM
9 | Cn1cnnc1[C@]1(c2cccc(-n3cc(C4CC4)c4[nH]c(=O)[nH]c4c3=O)c2)C[C@@H](C)C1 (single isomer, unassigned) [Example 118, 7-cyclopropyl-5-[3-[trans-3-methyl-1-(4-methyl-1,2,4-triazol-3-yl)cyclobutyl]phenyl]-1,3-dihydroimidazo[4,5-c]pyridine-2,4-dione] | 0.1 to 1 µM | > 5 µM
10 | Cn1cnnc1C1(c2cccc(-n3cc(C4CC4)c4cc(CNCC5(CO)CC5)[nH]c4c3=O)c2)CC(F)(F)C1 [Example 85, 4-cyclopropyl-6-{3-[3,3-difluoro-1-(4-methyl-4H-1,2,4-triazol-3-yl)cyclobutyl]phenyl}-2-[({[1-(hydroxymethyl)cyclopropyl]methyl}amino)methyl]-1H,6H,7H-pyrrolo[2,3-c]pyridin-7-one] | < 0.1 µM | 0.1 to 1 µM

Now from value to compound:

Row | IC50 (Cbl-b) | EC50 (Jurkat cells) | SMILES
11 | < 0.1 µM | 0.1 to 1 µM | C[C@@H]1CN(Cc2cc3c(C4CC4)cn(-c4cccc(C5(c6nncn6C)CC6(CC6)C5)c4)c(=O)c3[nH]2)CCO1 [Example 71, 4-cyclopropyl-2-[[(2R)-2-methylmorpholin-4-yl]methyl]-6-[3-[5-(4-methyl-1,2,4-triazol-3-yl)spiro[2.3]hexan-5-yl]phenyl]-1H-pyrrolo[2,3-c]pyridin-7-one]
12 | < 0.1 µM | 0.1 to 1 µM | C[C@H]1CCCN(Cc2cc3c(C4CC4)cn(-c4cccc(C5(c6nccn6C)CC(F)(F)C5)c4)c(=O)c3[nH]2)C1 [Example 128, 4-cyclopropyl-6-[3-[3,3-difluoro-1-(1-methylimidazol-2-yl)cyclobutyl]phenyl]-2-[[(3S)-3-methylpiperidin-1-yl]methyl]-1H-pyrrolo[2,3-c]pyridin-7-one]
13 | < 0.1 µM | 0.1 to 1 µM | C[C@H]1CCCN(Cc2cc3c(C4CC4)cn(-c4cccc([C@]5(c6nccn6C)C[C@H](OC(F)F)C5)c4)c(=O)c3[nH]2)C1 [Example 97, 4-cyclopropyl-6-[3-[3-(difluoromethoxy)-1-(1-methylimidazol-2-yl)cyclobutyl]phenyl]-2-[[(3S)-3-methylpiperidin-1-yl]methyl]-1H-pyrrolo[2,3-c]pyridin-7-one]
14 | < 0.1 µM | < 0.1 µM | CC(c1cccc(-n2cc(C3CC3)c3cc(CN4CCC[C@H](C)C4)[nH]c3c2=O)c1)c1nncn1C (stereo partly drawn) [Example 165, 4-cyclopropyl-2-[[(3S)-3-methylpiperidin-1-yl]methyl]-6-[3-[1-(4-methyl-1,2,4-triazol-3-yl)ethyl]phenyl]-1H-pyrrolo[2,3-c]pyridin-7-one]
15 | < 0.1 µM | < 0.1 µM | C[C@H]1CCCN(Cc2cc3c(C4CC4)cn(-c4cccc([C@]5(c6nccn6C)C[C@H](F)C5)c4)c(=O)c3[nH]2)C1 [Example 126, 4-cyclopropyl-6-(3-((1r,3S)-3-fluoro-1-(1-methyl-1H-imidazol-2-yl)cyclobutyl)phenyl)-2-(((S)-3-methylpiperidin-1-yl)methyl)-1,6-dihydro-7H-pyrrolo[2,3-c]pyridin-7-one]
16 | < 0.1 µM | < 0.1 µM | C[C@H]1CCCN(Cc2cc3ncn(-c4cccc([C@]5(c6nncn6C(F)F)C[C@H](F)C5)c4)c(=O)c3[nH]2)C1 [Example 149, 2—{[(S)-3-methyl-1-piperidyl]methyl}-6-(m-{(1r,3S)-1-[4-(difluoromethyl)-4H-1,2,4-triazol-3-yl]-3-fluorocyclobutyl}phenyl)-1,6-dihydro-1,4,6-triaza-7-indenone]
17 | < 0.1 µM | < 0.1 µM | CC1CC(c2cccc(-n3cnc4cc(CN5CCC[C@H](C)C5)[nH]c4c3=O)c2)(c2nncn2C)C1 (mixture of isomers) [Example 119, 6—{[(3S)-3-Methylpiperidin-1-yl]methyl}-3-{3-[(1R,3S)-3-methyl-1-(4-methyl-4H-1,2,4-triazol-3-yl)cyclobutyl]phenyl}-3H,4H,5H-pyrrolo[3,2-d]pyrimidin-4-one]
18 | < 0.1 µM | 0.1 to 1 µM | C[C@H]1CCCN(Cc2cc3c(C4CC4)cn(-c4cccc(C5(c6nncn6CC(F)F)CC6(CC6)C5)c4)c(=O)c3[nH]2)C1 [Example 146, 4-Cyclopropyl-6-[3-[5-[4-(2,2-difluoroethyl)-1,2,4-triazol-3-yl]spiro[2.3]hexan-5-yl]phenyl]-2-[[(3S)-3-methylpiperidin-1-yl]methyl]-1H-pyrrolo[2,3-c]pyridin-7-one]
19 | < 0.1 µM | 0.1 to 1 µM | CC1CC(c2cccc(-n3cc(C4CC4)c4cc(CN5CCC(F)(F)[C@H](C)C5)[nH]c4c3=O)c2)(c2nncn2C)C1 (stereo partly drawn) [Example 57, 4-cyclopropyl-2-{[(3R)-4,4-difluoro-3-methylpiperidin-1-yl]methyl}-6-{3-[3-methyl-1-(4-methyl-4H-1,2,4-triazol-3-yl)cyclobutyl]phenyl}-1H,6H,7H-pyrrolo[2,3-c]pyridin-7-one]
20 | < 0.1 µM | 0.1 to 1 µM | C[C@@H]1CN(Cc2nc3c(C4CC4)cn(-c4cccc([C@]5(c6nncn6C)C[C@H](C)C5)c4)c(=O)c3[nH]2)CCO1 [Example 110, 7-cyclopropyl-5-[3-[3-methyl-1-(4-methyl-1,2,4-triazol-3-yl)cyclobutyl]phenyl]-2-[[(2R)-2-methylmorpholin-4-yl]methyl]-3H-imidazo[4,5-c]pyridin-4-one]
21 | < 0.1 µM | < 0.1 µM | C[C@H]1CCCN(Cc2cc3c(C4CC4)cn(-c4cccc([C@]5(c6nncn6C(F)F)C[C@H](F)C5)c4)c(=O)c3[nH]2)C1 [Example 148, 2—{[(S)-3-methyl-1-piperidyl]methyl}-4-cyclopropyl-6-(m-{1-[4-(difluoromethyl)-4H-1,2,4-triazol-3-yl]-3-fluorocyclobutyl}phenyl)-1,6-dihydro-1,6-diaza-7-indenone]
22 | < 0.1 µM | 0.1 to 1 µM | CC(C)[C@H]1CN(C)CCN1Cc1cc2c(C3CC3)cn(-c3cccc(C4(c5nncn5C)CC5(CC5)C4)c3)c(=O)c2[nH]1 [Example 73, 4-cyclopropyl-2-{[(2S)-4-methyl-2-(propan-2-yl)piperazin-1-yl]methyl}-6-{3-[5-(4-methyl-4H-1,2,4-triazol-3-yl)spiro[2.3]hexan-5-yl]phenyl}-1H,6H,7H-pyrrolo[2,3-c]pyridin-7-one]
